Source: ChEMBL document CHEMBL1201862, “PubChem BioAssay data set” (2004)
Active and inactive are the calls of the source.

Columns and labels:
[1] = target: Aryl hydrocarbon receptor (Homo sapiens, UniProt P35869); experiment: Luminescence-based cell-based high throughput dose response assay for activators of the Aryl Hydrocarbon Receptor (AHR). [Related pubchem assays: 2796 (Primary screen (AHR activators in singlicate)), 2845 (Confirmation screen (AHR activators in triplicate)), 434939 (Counterscreen (PXR activators in triplicate)), 2804 (Summary (AHR activators))]; format: ADME
[2] = inhibitors of intracellular T. cruzi replication, confirmation, NIH3T3 host cells, beta-gal luminescence (AID 2044); format: functional, cell-based;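 further: intracellular parasites grown in NIH/3T3 mouse fibroblasts as host cells; luminescent beta-galactosidase reporter signal from transgenic T. cruzi replicating inside host cells; inhibitors lower the luminescence signal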
[3] = cytotoxicity toward NIH3T3 fibroblasts, dose response, counter-screen, cell-based, ATP luminescence, mouse fibroblasts (AID 2010); format: functional;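 further: cells exposed to compound for about 90 hours before reading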
[4] = cells
[5] = inhibitors of HIV Env-driven cell fusion, dose response, cherry-pick (AID 652057); format: functional, cell-based
[6] = ZM109 Env clade C HIV-1 fusion inhibitors, dose response, HeLa effector, CEM target cells, luciferase, cherry-pick (AID 652058); format: functional, cell-based
[7] = inhibitors of clade B AD8 Env fusion, dose response, cell-based, cherry-pick (AID 652062); format: functional;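 further: luciferase signal from cell-cell fusion driven by HIV-1 clade B AD8 Env; potency is for inhibitors of fusion seen as a drop in luminescence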
[8] = P. falciparum Dd2 growth inhibitors, dose response, SYBR Green, cherry-picked samples (AID 1159567); format: functional, cell-based
[9] = HepG2 cell cytotoxicity, dose response, cytotoxicity control, cherry-picked samples (AID 1159577); format: functional, cell-based
[10] = Concentration-dependent survival of SW480 colon cancer line, luminescence detection with CellTiter-Glo, half-maximal inhibitory concentration (AID 1117338); format: functional
[11] = RKO cell viability reduction, dose response, CellTiter-Glo luminescence (AID 1117322); format: functional
[12] = cytotoxicity toward HCT116 cells – cell-based, CellTiter-Glo luminescence, IC50, dose response (AID 1117332); format: functional; settings: HCT-116
[13] = SNU-C1 cell viability reduction, dose response, CellTiter-Glo luminescence (AID 1117323); format: functional, cell-based
[14] = cytotoxicity toward Colo320 cells – cell-based, CellTiter-Glo luminescence, IC50, dose response (AID 1117334); format: functional; settings: COLO 320
[15] = cytotoxicity toward HT-29 cells – cell-based, CellTiter-Glo luminescence, IC50, dose response (AID 1117330); format: functional
[16] = CellTiter-Glo luminescent dose response of DLD-1 viability loss (AID 1117352); format: functional
[17] = HCT116 cell viability decrease, GSK3B pretreatment – CellTiter-Glo, IC50, dose response (AID 1117339); format: functional; settings: HCT-116
[18] = target: T1, Leucine aminopeptidase (Plasmodium falciparum 3D7, UniProt Q8IL11); experiment: P. falciparum M17LAP inhibitors, primary screen, biochemical, fluorogenic H-Leu-NHMec substrate, 1536-well (AID 1619); format: functional
T1 sequence (Q8IL11 whole entry): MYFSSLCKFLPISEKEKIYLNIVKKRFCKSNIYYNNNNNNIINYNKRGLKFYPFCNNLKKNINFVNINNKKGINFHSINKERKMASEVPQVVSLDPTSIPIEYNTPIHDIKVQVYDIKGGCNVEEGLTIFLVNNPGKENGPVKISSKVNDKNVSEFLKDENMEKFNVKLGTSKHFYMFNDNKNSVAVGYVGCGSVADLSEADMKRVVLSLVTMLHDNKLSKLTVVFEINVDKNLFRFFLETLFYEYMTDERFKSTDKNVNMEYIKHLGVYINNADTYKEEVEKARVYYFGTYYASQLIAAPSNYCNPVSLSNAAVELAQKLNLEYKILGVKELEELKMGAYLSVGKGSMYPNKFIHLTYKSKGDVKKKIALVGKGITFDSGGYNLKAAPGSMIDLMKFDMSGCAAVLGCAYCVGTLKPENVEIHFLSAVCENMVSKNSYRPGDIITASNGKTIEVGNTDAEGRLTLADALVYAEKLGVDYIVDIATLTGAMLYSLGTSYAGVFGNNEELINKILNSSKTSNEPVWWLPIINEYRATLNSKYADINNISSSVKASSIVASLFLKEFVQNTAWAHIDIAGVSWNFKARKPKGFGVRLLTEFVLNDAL

[19] = target: Aspartyl aminopeptidase (Plasmodium falciparum 3D7, UniProt Q8I2J3); experiment: Counterscreen for inhibitors of M1 and M17 aminopeptidases: QFRET-based biochemical high throughput dose response assay for inhibitors of the Plasmodium falciparum M18 Aspartyl Aminopeptidase (PFM18AAP). [Related PubChem assays: 1619 (Screening assay (M17LAP inhibitors).), 1445 (Screening assay (M1AAP inhibitors).)]
[20] = A cytotoxicity screen of small molecule inhibitors of the PhoP region in Salmonella typhi identified in the primary screen. [Related pubchem assays: 1850, 1864, 1985 ]; format: functional
[21] = target: Procathepsin L (Homo sapiens, UniProt P07711); experiment: cathepsin L inhibitors, dose response, counter-screen for M1/M17 aminopeptidase inhibitor project, biochemical, QFRET, 1536-well (AID 2214)
[22] = cytotoxicity in HPDE-C7 cells, cell-based, fluorescence, HTS (AID 430); format: functional; settings: Homo sapiens
[23] = cytotoxicity in KRAS-transformed pancreatic duct cells, primary screen, cell-based, fluorescence, HTS (AID 431); format: functional; settings: Homo sapiens;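 further: cell line used: HPDE-C7K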
[24] = test system: Danio rerio; experiment: In Vivo Angiogenesis Dose-Response Confirmation. [Related pubchem assays: 732 (Assay preceding this confirmatory assay.)]; format: functional, organism-based
[25] = target: Heat shock protein HSP 90-alpha (Homo sapiens, UniProt P07900); experiment: Luminescence-based dose response biochemical high throughput screening assay for inhibitors of the Heat Shock Protein 90 (HSP90). [Related pubchem assays: 1831 (Summary AID.), 1846 (Confirmation screen.), 1789 (Primary screen.)]
[26] = Vero cell cytotoxicity, dose response, cytotoxicity control for Vif-APOBEC3G degradation inhibitor project, Vero cells (AID 1117358); format: functional; settings: Human immunodeficiency virus 1, Vero

Aspartyl aminopeptidase, sequence (Q8I2J3 whole entry): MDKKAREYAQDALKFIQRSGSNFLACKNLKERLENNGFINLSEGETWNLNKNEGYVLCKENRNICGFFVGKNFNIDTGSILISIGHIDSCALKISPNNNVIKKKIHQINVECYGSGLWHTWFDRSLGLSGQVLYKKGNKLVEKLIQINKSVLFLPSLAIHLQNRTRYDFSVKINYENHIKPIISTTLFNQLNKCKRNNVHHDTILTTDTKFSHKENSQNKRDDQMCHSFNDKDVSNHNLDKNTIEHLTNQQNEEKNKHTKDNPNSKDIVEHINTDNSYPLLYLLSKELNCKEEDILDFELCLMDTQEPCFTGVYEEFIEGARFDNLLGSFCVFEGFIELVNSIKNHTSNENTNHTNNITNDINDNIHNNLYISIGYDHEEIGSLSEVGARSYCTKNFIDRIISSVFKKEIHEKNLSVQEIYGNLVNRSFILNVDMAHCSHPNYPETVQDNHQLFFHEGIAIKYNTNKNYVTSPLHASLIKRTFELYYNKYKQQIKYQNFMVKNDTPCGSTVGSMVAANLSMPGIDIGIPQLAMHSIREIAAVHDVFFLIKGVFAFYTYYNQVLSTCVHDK
Procathepsin L, sequence (P07711 whole entry): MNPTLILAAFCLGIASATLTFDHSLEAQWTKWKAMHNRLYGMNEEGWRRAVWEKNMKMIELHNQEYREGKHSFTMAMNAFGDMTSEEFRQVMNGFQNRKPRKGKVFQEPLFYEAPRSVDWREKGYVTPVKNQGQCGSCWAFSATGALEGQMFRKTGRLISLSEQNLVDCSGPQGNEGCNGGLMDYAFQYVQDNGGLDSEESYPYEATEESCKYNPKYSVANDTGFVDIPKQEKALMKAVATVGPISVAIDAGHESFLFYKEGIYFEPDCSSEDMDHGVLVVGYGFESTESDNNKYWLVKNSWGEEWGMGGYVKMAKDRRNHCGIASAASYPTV
Aryl hydrocarbon receptor, sequence (P35869 whole entry): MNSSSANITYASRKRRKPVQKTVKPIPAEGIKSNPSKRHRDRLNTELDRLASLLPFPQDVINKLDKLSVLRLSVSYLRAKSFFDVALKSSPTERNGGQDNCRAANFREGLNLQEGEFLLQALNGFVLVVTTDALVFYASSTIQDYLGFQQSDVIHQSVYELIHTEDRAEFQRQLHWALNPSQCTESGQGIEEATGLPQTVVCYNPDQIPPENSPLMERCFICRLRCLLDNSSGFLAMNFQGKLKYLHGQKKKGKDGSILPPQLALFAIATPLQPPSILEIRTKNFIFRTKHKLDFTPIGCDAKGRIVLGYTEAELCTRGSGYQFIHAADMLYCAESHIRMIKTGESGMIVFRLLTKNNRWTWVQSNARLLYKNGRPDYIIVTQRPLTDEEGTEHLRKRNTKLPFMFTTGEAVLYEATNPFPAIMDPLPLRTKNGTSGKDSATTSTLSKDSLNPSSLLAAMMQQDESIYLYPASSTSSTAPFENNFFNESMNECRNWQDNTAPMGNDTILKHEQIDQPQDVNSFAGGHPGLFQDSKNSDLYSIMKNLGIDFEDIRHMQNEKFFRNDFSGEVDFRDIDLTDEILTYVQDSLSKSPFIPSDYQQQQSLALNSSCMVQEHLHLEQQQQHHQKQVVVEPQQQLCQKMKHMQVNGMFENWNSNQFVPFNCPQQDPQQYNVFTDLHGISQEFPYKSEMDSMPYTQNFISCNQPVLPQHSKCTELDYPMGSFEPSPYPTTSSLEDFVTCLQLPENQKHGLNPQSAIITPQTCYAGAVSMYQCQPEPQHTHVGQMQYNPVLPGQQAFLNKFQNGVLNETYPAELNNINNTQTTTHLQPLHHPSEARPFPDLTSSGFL

Structure (SMILES): Cc1ccc(C)c2sc(NC(=O)C3CC3)nc12
- EC50 [1]: 4.22 µM (active)

Structure (SMILES): COC(=O)c1ccc(CN2CCCC(CCC(=O)NCc3ccc(C)o3)C2)cc1 (stereo not given)
- EC50 [2]: < 0.1 µM (active)
- EC50 [3]: > 60 µM (not active)
- EC50 [4]: 0.113 µM (active)

Structure (SMILES): C[C@@H]1CN([C@@H](C)CO)C(=O)Cc2cc(NC(=O)Nc3ccc4c(c3)OCO4)ccc2O[C@H]1CN(C)Cc1ccc(Cl)c(Cl)c1
- AC50 [5]: 23.5 µM (active)
- AC50 [6]: 21.8 µM (active)
- AC50 [7]: 25 µM (active)
- AC50 [8]: 5.32 µM (active)
- AC50 [9]: > 39 µM (inactive)

Structure (SMILES): COc1ccc(CN2CCN(C(c3ccc(F)cc3)c3ccc(F)cc3)CC2)c(OC)c1OC
- IC50 [10]: 3.32 µM (active)
- IC50 [11]: 3.7 µM (active)
- IC50 [12]: 1.7 µM (active)
- IC50 [13]: 0.443 µM (active)
- IC50 [14]: 2.82 µM (active)
- IC50 [15]: 2.93 µM (active)
- IC50 [16]: 3.13 µM (active)
- IC50 [17]: 2.77 µM (active)

Structure (SMILES): CCCCc1c(O)nc(SCC(=O)Nc2ccc3c(c2)CCC3)nc1O
- IC50 [18]: 7.61 µM (active)
- IC50 [19]: > 73.5 µM (not active)
- EC50 [20]: > 50 µM (active)
- IC50 [21]: > 59.6 µM (not active)

Structure (SMILES): Cc1ccccc1Oc1ccc(NC(=O)C2CC=CCC2C(=O)O)cc1 (stereo not given)
- IC50 [18]: 1.33 µM (active)
- IC50 [19]: > 73.5 µM (not active)
- IC50 [21]: > 59.6 µM (not active)

Structure (SMILES): Cc1ccc(S(=O)(=O)Nc2ccc3oc(=O)sc3c2)c(C)c1
- EC50 [22]: 12.8 µM (active)
- EC50 [23]: 13.7 µM (active)

Structure (SMILES): Cc1cccc2c1NC(=O)/C2=C1\Nc2ccccc2\C1=N/O
- IC50 [24]: 0.68 µM (active)

Structure (SMILES): Cc1[nH]n(-c2ccccc2)c(=O)c1N=Nc1ccc(C(N)=O)cc1
- IC50 [25]: 20.9 µM (not active)

Structure (SMILES): COC(=O)c1ccc(N/C=C/C(=O)c2ccccc2)cc1
- IC50 [25]: 3.73 µM (active)

Structure (SMILES): COc1ccc(N=C(S)NCCc2ccccc2OC)c(OC)c1
- CC50 [26]: > 40 µM (active)
